# Test results reported in patent US7776917B2, “Non-standard amino acid conjugates of amphetamine and processes for making and using the same” (priority 2006, dated 2010).
# Where two headings read alike, the source gives them in different places.
# Assays:
# [1] = Intranasal PK study d-amphetamine, hArg-Amp, Orn-Amp (Example 10); conditions: […] equivalent, n=5, d-amphetamine in plasma, given in minutes
# [2] = Intravenous PK study d-amphetamine, hArg-Amp, Orn-Amp (Example 11); conditions: […] equivalent, n=5, d-amphetamine in plasma
# [3] = Oral PK study Lys-Amp, hArg-Amp, Orn-Amp, Cit-Amp (Example 9); conditions: in words
# [4] = oral; hArg-Amp = 100%
# [5] = Parenteral (intranasal, intravenous) administration of hArg-Amp, release of amphetamine (Example 1); conditions: parenteral routes (intranasal, intravenous)
# [6] = Average results of 4 oral PK studies, Lys-Amp vs hArg-Amp (Example 7); conditions: average of 4 oral studies, n=20; Lys-Amp = 100%
molecule,measurement,setting,value
"C[C@H](N)Cc1ccccc1 [d-amp, d-amphetamine]",Tmax,[1],15 m
same,Tmax,[2],15 m
l-citrulline-d-amphetamine hydrochloride [Cit-Amp],Tmax compared to Lys-Amp,[3],significantly shifted the Tmax
"C[C@@H](Cc1ccccc1)NC(=O)[C@@H](N)CCCCN=C(N)N.Cl.Cl [hArg-Amp, l-homoarginine-d-amphetamine Dihydrochloride]",% Tmax,[4],100%
same,release of amphetamine,[5],< 50%
l-lysine-d-amphetamine [Lys-Amp],% Tmax,[6],100%
